Legend:
rat = details: cited from earlier work
urease = details: on urea; Rheinland soil (pH 6.5) and Palencia soil (pH 7.5); 25° C., 14 days
Procedure: Erlenmeyer flasks were filled with 300 g air-dried, arable topsoil, irrigated to a desired % of its WHC (Water Holding Capacity), incubated for 6 days prior to the application of the fertilizers. Fertilizers (2.5-3.15 mm granule size) at a concentration of 100 mg N (Nitrogen)/flask were applied over the soil surface. Boric acid traps were installed to catch volatile ammonia from the air above the topsoil, and the Erlenmeyer flasks were installed in a Phytotron chamber at 25° C. at windy but not dry conditions.

[1] = Stability of nBTPT on urea granules (coated); assay type: physicochemical; details: 500 ppm, bagged, room temperature
Procedure: In a next step, the nBTPT material was slowly added. A residence time of 10 minutes was applied and the rotating speed of the drum was consequently the same in each experiment. Larger scale experiments with amounts up to 40 kg of fertilizer material were performed in a concrete mixer.
The samples were stored under several conditions, dependent on the type of samples: • Bagged at room temperature (20° C.) or in a Nissen hut (an unconditioned bulk storage hall) • Open to air in a Nissen hut
Typically, a day/night cycle is generated in the Nissen hut, with temperature fluctuations between 0 to 42° C. and fluctuations of relative humidity between 20 and 90%, which can be compared with real life storage in silos.

Structure (SMILES)	toxicity oral rat LD50 (rat)	urease inhibitory activity and volatilization control (cumulated volatile ammonia losses) (urease)	nBTPT degradation in 155 days [1]
CN1CCCC1 [NMP, N-methylpyrrolidine]	3914 mg/kg		
CCCCNP(N)(N)=S [nBTPT, N-(n-butyl) thiophosphoric triamide]		no statistically significant difference	about 75%
